# From paper PMC12389170, “N-Degron-Based PROTAC Targeting PLK1: A Potential Therapeutic Strategy for Cervical Cancer” (Pharmaceutics, 2025)
# Non-standard residues stand in square brackets, D forms with d. Residues, ends and D or L forms follow the SMILES beside them. No end group written: not given here. *: point of attachment. n‑octylphenyl = n-octylphenyl group on the histidine (alkylphenyl side chain at His); His(π-(CH2)8Ph) = N[C@@H](Cc1cncn1CCCCCCCCc1ccccc1)C(=O)O; pT = C[C@@H](OP(=O)(O)O)[C@H](N)C(=O)O; Cbz = O=C(OCc1ccccc1)*; Ahx = NCCCCCC(=O)O
# T1: NC1 (Arg12-Ahx-PLH(n-octylphenyl)SpT PROTAC peptide) (synthetic construct)
# T1 chain: RRRRRRRRRRRR[Ahx]PLH(n‑octylphenyl)S[pT]-NH2
# B1: PLK1 367-603 (protein)
# chain: NEAIECHLSDLLQQLTSVNASKPSERGLVRQEEAEDPACIPIFWVSKWVDYSDKYGLGYQLCDNSVGVLFNDSTRLILYNDGDSLQYIERDGTESYLTVSSHPNSLMKKITLLNYFRNYMSEHLLKAGANITPREGDELARLPYLRTWFRTRSAIILHLSNGTVQINFFQDHTKLILCPLMAAVTYINEKRDFQTYRLSLLEEYGCCKELASRLRYARTMVDKLLSSRSASNRLKAS
# Tests used:
# [1] = system: cervical carcinoma; conditions: advanced or recurrent cervical carcinoma, limited owing to chemoresistance; cited from earlier work
# From the text: According to the WHO, cervical cancer was the fourth most common cancer among women globally in 2022, with an estimated 660,000 new cases. Cervical cancer remains a considerable health threat, with 94% of the 350,000 deaths occurring in low- and middle-income countries. Chemotherapy, particularly cisplatin, is the primary treatment for advanced or recurrent cervical carcinoma. However, the response rate is limited to approximately 23% owing to chemoresistance. In addition, carboplatin, another platinum-based chemotherapy, is often used as an alternative for patients intolerant to c ...
# [2] = target: T2, PLK1 (Homo sapiens, UniProt P53350); test: PLK1 protein degradation in HeLa cells by immunoblotting; type: cell-based; conditions: NC1 24 h, 5 µM MG132 for 8 h
# T2 construct: cells were lysed and total proteins were extracted for immunoblot analysis of PLK1 expression; endogenous in cells; host or cells: HeLa
# Procedure: HeLa cells were seeded in 12-well plates with 1 × 10^5 cells per well and allowed to stay for overnight. Various concentrations (0, 1, 2, 3, 4, and 5 µM) of NC1 were added to HeLa cells in 12-well plates and incubated for 24 h. An amount of 5 µM of MG132 was added to the cells and incubated for 8 h to evaluate the proteasome inhibition. before harvesting. Following treatment, cells were lysed and total proteins were extracted for immunoblot analysis of PLK1 expression. Protein samples were separated by SDS-PAGE and transferred onto PVDF membranes. PLK1 was detected using a mouse-derived monoclonal antibody, with β-actin used as an internal control to ensure equal loading.
# [3] = system: HeLa cells; test: G2/M phase cell cycle arrest by flow cytometry (PI); type: cell-based; conditions: 6 µM, 24 h
# Procedure: HeLa cells (3.5 × 10^5 cells/well) were seeded into 6-well plates and grown to 80–90% confluence. […] Both medium and floating cells were collected, washed with PBS three times, and fixed in 70% cold ethanol. Further, cells were washed again with PBS and stained with a solution containing PI (1 µg/mL) and RNase A (1 µg/mL) at 37 °C for 30 min. The stained cells were analyzed using a CytoFLEX flow cytometer (Beckman Coulter, Brea, CA, USA), and data were processed with FlowJo v10.10 [10].
# [4] = system: HeLa cells; test: Morphological assessment by phase contrast microscopy; type: cell-based; conditions: 6 µM, 30 h
# [5] = system: HeLa cells
# Procedure: HeLa cells were cultured in Dulbecco’s modified Eagle’s medium (DMEM) supplemented with 10% fetal bovine serum and maintained at 37 °C in a 5% CO2 atmosphere. HeLa cells were seeded into 96-well plates at a density of 5 × 10^3 cells per well in 100 µL of medium. […] Cell viability was assessed using the Enhanced MTT Cell Viability Assay Kit (DoGenBio, Seoul, Republic of Korea), following the manufacturer’s instructions. After a 2 h incubation with 10 µL of MTT solution, absorbance at 450 nm was analyzed using a microplate reader (Molecular Devices, San Jose, CA, USA) [33].
# Data are presented as the mean ± SEM and analyzed DC50 (concentration that induced half-maximal degradation of PLK1) and IC50 (the concentration that inhibits cell growth by 50%) using GraphPad Prism 5.0 The statistical test was performed through “t-test (** p < 0.005, *** p < 0.001, **** p < 0.0005)”.
# [6] = system: HeLa cells; test: Fluorescence apoptosis assay (LIVE/DEAD kit); type: cell-based; conditions: 6 µM, 24 h, LIVE/DEAD staining
# Procedure: HeLa cells were seeded into 96-well plates at 5 × 10^3 cells/well and allowed to reach approximately 95% confluence. […] Following treatment, a staining solution was prepared by mixing 3 µL of the LIVE/DEAD™ Viability/Cytotoxicity Kit (Invitrogen, Waltham, MA, USA) reagents in 1 mL of PBS. A 100 µL aliquot of this solution was added to each well. After 30 min of incubation at room temperature, fluorescent images were captured using a Nikon ECLIPSE TS100 fluorescence microscope (Nikon, Tokyo, Japan) [33].
# [7] = system: HeLa xenograft cervical cancer; test: In vivo antitumor activity, HeLa xenograft mouse model; conditions: nude mice, 4 mg/kg tail vein every 3-4 d for 29 d, n = 4
# Procedure: The antitumor efficacy of NC1 was assessed in a HeLa xenograft mouse model, as reported. Briefly, 5 × 10^6 HeLa cells were subcutaneously injected into the right thigh region of immunodeficient nude mice. When tumors reached an approximate volume of 100 mm^3 (calculated using the formula: volume = 0.52 × length × width^2), mice were randomly assigned to treatment groups. NC1 (4 mg/kg) or PBS (vehicle control) was administered via tail vein injection at intervals of 3–4 days over a period of 29 days. Tumor volumes were measured regularly using calipers. All animal procedures were approved by the KBSI Institutional Animal Care and Use Committee (Protocol No. KBSI-IACUC-24-15) and were conducted in accordance with institutional and governmental regulations.
# [8] = target: T3, PLK1 PBD (Mus musculus, UniProt Q07832); test: Isothermal titration calorimetry (ITC) of PLK1 PBD with NC1; conditions: 25 °C, PLK1 PBD 20 µM in cell, NC1 200 µM in syringe, 20 mM HEPES pH 7.5, 200 mM NaCl, 5% DMSO, one-site model, read-out: Kd, binding affinity between NC1 and PLK1 PBD
# T3 construct: (Swiss Prot entry Q07832, residues 367–603); 6XHis (N); TEV protease cleavage site (N); made in house; pET28a vector and IPTG induction point to E. coli (inferred)
# Procedure: The mouse PLK1 in Polo box domain (PBD) (Swiss Prot entry Q07832, residues 367–603) was expressed as a recombinant protein containing an N-terminal 6XHis tag in the pET28a vector and a tobacco etch virus (TEV) protease cleavage was engineered between the affinity tag and PLK1 PBD. PLK1 PBD protein expression was induced by adding 0.1 mM IPTG and incubating the cells overnight at 18 °C. Following induction, the cells were collected by centrifugation and lysed via sonication after being resuspended in buffer composed of 20 mM HEPES (pH 7.5), 200 mM NaCl, 2 mM β-mercaptoethanol, and 1 mM PMSF. The lysate was clarified by centrifugation at 18,000 rpm for 40 min at 4 °C. The resulting supernatant was subjected to immobilized metal affinity chromatography (IMAC) using a Ni^2+-NTA HiTrap column (GE Healthcare), and the protein was eluted using an imidazole gradient ranging from 25 to 500 mM. For further purification, size-exclusion chromatography was conducted on a HiLoad 26/60 Superdex-75 column equilibrated with 20 mM HEPES (pH 7.2), 150 mM NaCl, and 2 mM DTT. PLK1 PBD protein was purified the purity of the proteins at each stage was checked on 15% SDS-PAGE. The purified PLK1 PBD protein was concentrated to 10 mg/mL using a VIVASPIN20 (Sartorius, Göttingen, Germany) concentrator and stored at −80 °C until use. […]
# [9] = target: T1, NC1 (Arg12-Ahx-PLH(n-octylphenyl)SpT …); test: ITC
# T2 sequence (P53350 whole entry): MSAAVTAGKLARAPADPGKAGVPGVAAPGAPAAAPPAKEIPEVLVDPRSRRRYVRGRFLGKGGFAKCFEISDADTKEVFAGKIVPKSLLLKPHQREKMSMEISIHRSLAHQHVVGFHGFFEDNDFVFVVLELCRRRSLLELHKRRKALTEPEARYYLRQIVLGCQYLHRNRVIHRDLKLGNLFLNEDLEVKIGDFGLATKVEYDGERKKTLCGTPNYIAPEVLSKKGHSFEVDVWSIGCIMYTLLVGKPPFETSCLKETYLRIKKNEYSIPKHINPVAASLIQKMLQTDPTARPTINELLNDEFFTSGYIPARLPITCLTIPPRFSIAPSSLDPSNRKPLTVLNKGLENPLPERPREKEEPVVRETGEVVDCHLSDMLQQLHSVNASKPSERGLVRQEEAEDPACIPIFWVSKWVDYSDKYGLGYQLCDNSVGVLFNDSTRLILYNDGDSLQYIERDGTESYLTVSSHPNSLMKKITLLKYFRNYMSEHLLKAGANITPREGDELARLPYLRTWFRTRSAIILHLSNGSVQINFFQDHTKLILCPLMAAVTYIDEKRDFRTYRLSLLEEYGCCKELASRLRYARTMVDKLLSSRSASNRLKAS
molecule,measurement,setting,value
N.N.[Cl][Pt][Cl] [cisplatin],Response rate,[1],approximately 23%
CC(C)C[C@@H](C=O)NC(=O)[C@H](CC(C)C)NC(=O)[C@H](CC(C)C)NC(=O)OCc1ccccc1 [MG132] (Cbz-Leu-Leu-Leu-aldehyde),Effect of proteasome inhibitor co-treatment on NC1-induced PLK1 degradation,[2],significantly reduced degradation
PLH(n-octylphenyl)SpT [4j],G1 cell population,[3],75.88
same,G2/M cell population,[3],14.68
same,Increase in G2/M cell population compared with the control,[3],2.38%
same,S cell population,[3],5.47
same,SubG1 cell population,[3],3.97
same,Morphological changes of HeLa cells,[4],did not induce notable morphological changes
same,Effect on cell viability,"[5]; MTT, 24 h, up to 12 µM",did not significantly affect cell viability
same,"Apoptotic (dead, red) cells in fluorescence images",[6],few apoptotic red cells
CC(C)C[C@H](NC(=O)[C@@H]1CCCN1C(=O)CCCCCNC(=O)[C@H](CCCNC(=N)N)NC(=O)[C@H](CCCNC(=N)N)NC(=O)[C@H](CCCNC(=N)N)NC(=O)[C@H](CCCNC(=N)N)NC(=O)[C@H](CCCNC(=N)N)NC(=O)[C@H](CCCNC(=N)N)NC(=O)[C@H](CCCNC(=N)N)NC(=O)[C@H](CCCNC(=N)N)NC(=O)[C@H](CCCNC(=N)N)NC(=O)[C@H](CCCNC(=N)N)NC(=O)[C@H](CCCNC(=N)N)NC(=O)[C@@H](N)CCCNC(=N)N)C(=O)N[C@@H](Cc1cncn1CCCCCCCCc1ccccc1)C(=O)N[C@@H](CO)C(=O)N[C@H](C(N)=O)[C@@H](C)OP(=O)(O)O [NC1] (H-RRRRRRRRRRRR[Ahx]PL[His(π-(CH2)8Ph)]S[pT]-NH2),IC50,"[5]; read-out: IC50 for cancer cell viability, MTT, 24 h",5.23 µM
same,Body weight of tumor-bearing mice,[7],remained constant
same,Kd,[8],6.06 µM
B1,Kd,[9],6.06 µM
